Data taken from publication PMC4186449 (Pharmacology Research & Perspectives, 2014).

Target: T1, LdTOPII (Leishmania donovani, UniProt Q9XZN0)
T1 sequence (Q9XZN0 1-1236): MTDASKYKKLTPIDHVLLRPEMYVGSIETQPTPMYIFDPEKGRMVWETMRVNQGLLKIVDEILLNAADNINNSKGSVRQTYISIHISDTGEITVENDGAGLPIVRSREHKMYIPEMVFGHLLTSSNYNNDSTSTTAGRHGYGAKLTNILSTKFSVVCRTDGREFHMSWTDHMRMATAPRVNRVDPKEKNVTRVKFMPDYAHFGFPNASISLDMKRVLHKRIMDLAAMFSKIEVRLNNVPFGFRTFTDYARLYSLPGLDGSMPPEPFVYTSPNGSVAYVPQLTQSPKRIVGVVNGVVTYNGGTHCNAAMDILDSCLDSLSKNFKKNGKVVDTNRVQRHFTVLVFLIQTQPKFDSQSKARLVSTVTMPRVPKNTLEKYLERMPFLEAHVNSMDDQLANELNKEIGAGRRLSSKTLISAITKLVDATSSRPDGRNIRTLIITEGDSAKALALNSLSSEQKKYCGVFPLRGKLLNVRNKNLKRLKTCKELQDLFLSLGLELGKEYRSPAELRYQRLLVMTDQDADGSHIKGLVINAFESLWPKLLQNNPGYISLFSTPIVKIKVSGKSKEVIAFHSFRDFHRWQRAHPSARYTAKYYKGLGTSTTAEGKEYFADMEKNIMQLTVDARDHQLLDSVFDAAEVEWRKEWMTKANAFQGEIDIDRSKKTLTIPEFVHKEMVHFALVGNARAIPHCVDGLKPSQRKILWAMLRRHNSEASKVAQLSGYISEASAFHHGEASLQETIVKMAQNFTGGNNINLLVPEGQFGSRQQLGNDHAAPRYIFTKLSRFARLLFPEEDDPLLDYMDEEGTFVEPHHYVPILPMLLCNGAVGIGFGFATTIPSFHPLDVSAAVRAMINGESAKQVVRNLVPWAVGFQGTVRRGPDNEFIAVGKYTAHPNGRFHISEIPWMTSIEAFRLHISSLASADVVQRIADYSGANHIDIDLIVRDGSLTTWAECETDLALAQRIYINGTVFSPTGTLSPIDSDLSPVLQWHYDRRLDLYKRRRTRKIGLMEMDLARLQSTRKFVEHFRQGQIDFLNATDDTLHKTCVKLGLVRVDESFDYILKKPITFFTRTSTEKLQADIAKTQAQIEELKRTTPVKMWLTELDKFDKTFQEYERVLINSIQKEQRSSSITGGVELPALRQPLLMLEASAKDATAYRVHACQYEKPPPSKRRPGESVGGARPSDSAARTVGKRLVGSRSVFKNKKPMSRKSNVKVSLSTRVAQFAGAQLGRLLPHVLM
Conditions: 2 mmol/L ATP, 30°C

With `Nc1ncnc2c1ncn2[C@@H]1O[C@H](COP(=O)(O)OP(=O)(O)OP(=O)(O)O)[C@@H](O)[C@H]1O` [ATP] the “pyruvate kinase/lactate dehydrogenase coupled ATPase assay” value was “JVPH3 and JVPH4 did not interfere with LdTOPII-mediated ATP hydrolysis”.
